Data as given in ChEMBL document CHEMBL3507680, “University of Dundee, Gates Library screen for HepG2 cell viability”.

Assay: Human HepG2 cell viability assay in 384 well format
Assay type: toxicity, cell-based
Design: dose 125 nL, time 70.5 hour; concentration not given beside the values
Conditions: HepG2 cells, read-out: Inhibition

Compound | cytotoxicity at 70.5 h
Cc1c(C(=O)NC(C)C(C)C)nnn1-c1cccc2c1CCN(C)C2 (stereo not drawn) | 5.93%
Cc1cc(C)n(C2CN(CC(=O)N(C)Cc3ccc(C)o3)C2)n1 | -9.43%
CCS(=O)(=O)N1CCc2c(cccc2NC(=O)NCCOC)C1 | -1.31%
Cc1ccccc1CS(=O)(=O)CC(=O)NCc1ccccc1F | 4.2%
COc1ccc(NC(=O)C(c2cccc(F)c2)N2CCOCC2)cc1 (stereo not drawn) | -8.8%
CCCOCC(=O)NC1CCc2nc(C)cn2C1 (stereo not drawn) | -2.67%
CCOCCC(=O)Nc1cccc(Oc2ccccn2)c1 | 23.9%
Cc1n[nH]c(C2CN(C(=O)c3ccco3)CCO2)n1 (stereo not drawn) | -4.63%
COc1cccc(CN(C)C(=O)CSc2ccc3c(c2)OCCO3)c1 | -4.28%
CN(C)C(=O)Cc1nc(CN2CCCCC2Cn2cccn2)cs1 (stereo not drawn) | 37%
CCN(Cc1ccco1)C(=O)c1cc(OC)c2c(c1)OCCO2 | 5.2%
CCOCCOC(C)C(=O)NCc1cn2cc(Br)ccc2n1 (stereo not drawn) | -1.73%
CCN(C(=O)COC)C(c1cccnc1)c1cc(C)cc(C)c1 (stereo not drawn) | 13.8%
CCN(C(=O)COC)C(c1cccnc1)c1ccc2c(c1)CCO2 (stereo not drawn) | -2.44%
c1cnnc(N2CCCC2CNCc2nc3ccccc3o2)c1 (stereo not drawn) | -9.74%
Cc1ccc(F)cc1S(=O)(=O)N(C)CC(N)=O | -11.9%
Cc1nc(CCNC(=O)NC2CCN(c3ncccn3)CC2)cs1 | -8.38%
CN(CC(N)=O)S(=O)(=O)c1ccc(F)cc1Cl | -11.4%
CC(C)Oc1ncc(C(=O)N2CCC(NC(=O)C3CC3)CC2)cc1Cl | 7%
CCN(CC)C1CCN(C(=O)NCc2c(C)noc2C)CC1 | -7.03%
COC(=O)CCNC(=O)c1ccoc1CN1c2ccccc2CC1C (stereo not drawn) | -1.15%
O=C(NCCC1CCCO1)c1ccccc1N1CCOCC1 (stereo not drawn) | 1.49%

Compound | cytotoxicity at 70.5 h
Cc1ccc(N2CCCN(C(=O)c3cc(Cl)c[nH]3)CC2)nn1 | -8.66%
Cc1nnc2n1CCN(C(=O)c1cn(-c3ccccc3Cl)nn1)C2 | -9.21%
Cc1cccc(N2CCN(C(=O)CN3CCN(CCO)CC3)CC2)c1 | 0.659%
CN1CCCc2cc(NC(=O)N3CCOC(C(N)=O)C3)ccc21 (stereo not drawn) | 3.77%
Cc1cnc(C(=O)N2CCCN(Cc3csc(C)n3)CC2)cn1 | -5.72%
Cc1ccc(OCC(=O)NCc2ccccc2F)nc1 | -2.31%
CS(=O)(=O)c1ccc(OCCNCc2ccc(F)cc2F)cc1 | 0.183%
CCN(CC)c1ccc(NS(=O)(=O)c2cnn(C)c2)cn1 | -2.05%
CCCNC(=O)COc1ccc(C)cn1 | -0.369%
CC(C)Oc1cccc(C(O)CNC(=O)CCc2ccncc2)c1 (stereo not drawn) | -5.8%
Cc1[nH]ccc1C(=O)Nc1cccc(CN2CCC(CO)CC2)c1 | 27.9%
Cc1[nH]ccc1C(=O)Nc1cccc(CN2CCC(O)CC2)c1 | 1.4%
NCC(c1ccccc1)N1CCc2sccc2C1 (stereo not drawn) | 5.18%
O=C(Nc1ccccn1)C1CC(=O)N(Cc2ccccn2)C1 (stereo not drawn) | 16.8%
O=C(NC1CCC1)c1c2c(N3CCCC3)ncnc2n2ccccc12 | -2.42%
CC(=O)N1CCC2(CCN(C(=O)c3ccc(F)c(C(F)(F)F)c3)CC2)C1 | -6.93%
O=C(c1ccccn1)N1CC[C@@H](N2CCOCC2)[C@@H]1Cc1ccccc1 | -10.4%
O=C(c1cnccn1)N1CC[C@H]2C[C@@H](c3ccncn3)O[C@@H]2C1 | -11.7%
O=C(c1ccoc1)N1CC[C@H]2C[C@@H](c3ccncn3)O[C@@H]2C1 | 4.08%
O=C(c1ccsc1)N1CC[C@@H](N2CCOCC2)[C@@H]1Cc1ccccc1 | -11.8%
Cc1ccc(CN2CCC3(CC(=O)N(c4ccc5c(c4)OCO5)C3)C2)o1 (stereo not drawn) | -6.86%
Cc1cc(C(=O)N2CC[C@H]3C[C@H](c4ccncn4)O[C@@H]3C2)c(C)[nH]1 | -4.78%

Compound | cytotoxicity at 70.5 h
CC(=O)N1CCC2(CC1)CCN(C(=O)c1ccc(F)c(C(F)(F)F)c1)C2 | -7.91%
CC(=O)N1CCC2(CCN(Cc3ccc(Cl)c(C(F)(F)F)c3)CC2)C1 | -11.6%
CC(=O)N1CCC2(CCN(C(=O)c3ccc(F)c(C(F)(F)F)c3)C2)C1 (stereo not drawn) | -12.8%
Cn1cccc1C(=O)N1C[C@@H](OCc2cccnc2)[C@H]2OCCC[C@H]21 | 8.24%
c1cc(CN2CCOCC3(CCN(C4CCOCC4)C3)C2)ccn1 (stereo not drawn) | 6.88%
O=C(NCC1Cn2nnc(-c3cccc(F)c3)c2CO1)c1ccc[nH]1 (stereo not drawn) | 4.99%
c1cnc(OCc2nnc3n2CCN(CC2CCOCC2)C3)nc1 | -7.25%
Cc1nccc([C@H]2C[C@@H]3CCN(Cc4ccco4)C[C@H]3O2)n1 | -10.9%
CCOCC1CC2(CCN(C(=O)c3ncccn3)CC2)CO1 (stereo not drawn) | -10.5%
CN(C)Cc1nnc2n1CCN(Cc1ccccn1)CC2 | -10.5%
CC(C)NC(=O)N1CCC2(CC(=O)N(c3cccc(F)c3)C2)C1 (stereo not drawn) | -12.8%
CO[C@H]1CN(C(=O)c2ccnnc2)[C@@H]2COC[C@H]12 | 36.6%
Cc1ccc(S(=O)(=O)N2CCC3(CC(C(=O)NCC(C)C)=NO3)C2)cc1 (stereo not drawn) | 7.95%
Cc1nccc([C@@H]2C[C@@H]3CCN(Cc4ccco4)C[C@H]3O2)n1 | 12.2%
O=C(c1ccnnc1)N1C[C@H](OCc2ccccn2)[C@H]2COC[C@H]21 | 4.62%
O=C(c1ccncn1)N1C[C@@H]2CN(Cc3cccnc3)CCO[C@@H]2C1 | -12.7%
O=C(c1ccccn1)N1CCC2(CC1)COC(COc1cccnc1)C2 (stereo not drawn) | -7.52%
CC(C)c1nccc([C@@H]2C[C@@H]3CCN(Cc4ccco4)C[C@H]3O2)n1 | 38.3%
Fc1cnc(N2CCC3(CCCN(c4nncs4)C3)C2)nc1 (stereo not drawn) | -6.18%
NC(=O)N1CCCC(C(=O)N2CCc3c(nc(CC4CC4)[nH]c3=O)C2)C1 (stereo not drawn) | -6.32%
Cc1nc(CNC(=O)CC2C(=O)NCCN2Cc2ccccc2C)n[nH]1 (stereo not drawn) | -0.629%
CCCc1cc(C(=O)N(Cc2cccnc2)Cc2cccnc2)[nH]n1 | -7.25%

Compound | cytotoxicity at 70.5 h
O=C(c1ccccn1)N1CCC(c2nccn2Cc2ccncc2)CC1 | -14.4%
Cc1nc(CC(=O)N2CCCC2c2nc(C(C)C)no2)cs1 (stereo not drawn) | -6.42%
CCN(C)CC(=O)N1CCN(Cc2ccccc2)[C@@H]2CS(=O)(=O)C[C@@H]21 | 2.14%
OC[C@H]1CN(C2Cc3ccccc3C2)C[C@H]1CN1CCC(O)CC1 | -7.74%
c1csc(-c2noc(COCC3CCCO3)n2)c1 (stereo not drawn) | 1.87%
Cc1c(CNCCCOc2cccnc2)c2ccccc2n1CC(N)=O | 5.45%
COc1ccc(OCC2CCCN(c3nc(CO)cs3)C2)cc1 (stereo not drawn) | -9.63%
CN(Cc1ccc(CCC(C)(C)O)cc1)Cc1cccnc1 | -11.5%
NC(=O)CN1CCC(C(=O)NCCc2nc(-c3ccccc3)cs2)CC1 | -3.75%
Cc1nnsc1CN1CC[C@@](O)(C2CCC2)[C@H](C)C1 | -7.08%
CCn1nc(CC(C)C)cc1C(=O)N1CC(N2CCCCC2C)C1 (stereo not drawn) | -2.38%
COc1cccc2c1OCC(CNC(=O)Cc1csc(C(C)=O)c1)C2 (stereo not drawn) | 14.4%
Cc1cc(C)c(C(=O)N2CCCC(C(=O)CCc3ccccc3)C2)cn1 (stereo not drawn) | -3.58%
N[C@H]1CN(C(=O)c2ccc(Cl)cc2O)C[C@@H]1C1CC1 | -3.15%
O=C1Nc2ccccc2NC12CCN(Cc1nnc(C3CC3)o1)CC2 | -5.39%
COc1cccc(C(=O)N2C[C@@H](CN(C)CCO)[C@@H](CO)C2)c1C | 23.8%
Cc1cc(C)n(CC2(CNC(=O)C(c3ccc(F)cc3)N(C)C)CC2)n1 (stereo not drawn) | -1.88%
O=C(NCc1ccccc1F)C1=NOC2(CCNC2)C1 (stereo not drawn) | -10.8%
O=C(NCc1ccco1)[C@H]1CC[C@@H]2[C@@H](CCN2c2ncc(F)cn2)O1 | -10.2%
CN(C)S(=O)(=O)N1CCC[C@]2(C[C@@H](Oc3ncccc3F)CO2)C1 | -11.4%
COCC1CN(Cc2cnn(C)c2)Cc2nn(C)cc21 (stereo not drawn) | -11.4%
O=S(=O)(C1CC1)N1CC[C@]2(C[C@@H](Oc3ncccc3F)CO2)C1 | 6.64%

Compound | cytotoxicity at 70.5 h
CN(C)S(=O)(=O)N1CC[C@]2(C[C@@H](Oc3cccnc3)CO2)C1 | -5.96%
Cc1ccoc1C(=O)N1C[C@H](OCc2cccnc2)[C@H]2OCCC[C@H]21 | -15.2%
O=C(O)c1c(-c2cccnc2)ncc2c1CCN(CC1CCOC1)C2 (stereo not drawn) | 16.6%
O=C(c1ccccn1)N1CCC2(CC1)COC(COCC1CCCC1)C2 (stereo not drawn) | -13.8%
O=C(c1ncccn1)N1CCC2(CC1)COC(COc1ccccn1)C2 (stereo not drawn) | 10.9%
c1coc(CN2CCc3nnc(COc4cncnc4)n3CC2)c1 | -13.1%
CCOCC1CN(Cc2ccncc2)Cc2nn(C)cc21 (stereo not drawn) | -7.15%
O=C1CO[C@@H]2CN(Cc3ccsc3)C[C@H]2N1Cc1ccncc1 | 13.6%
O=C1NC2(CCN(Cc3cccs3)CC2)CC1c1ccncc1 (stereo not drawn) | 10.2%
COc1ccc(CN2CCOCC3(CCN(C4CCOCC4)C3)C2)cc1 (stereo not drawn) | -5.87%
Fc1cccc(CN2CCOCC3(CCN(C4CCOCC4)C3)C2)c1 (stereo not drawn) | -7.34%
Cc1cccc(CN2CCOCC3(CCN(C4CCOCC4)C3)C2)c1 (stereo not drawn) | 9.31%
c1coc(CN2C[C@@H]3CCCO[C@@H]3[C@H](N3CCCC3)C2)c1 | -8.85%
O=C1NC2(CCN(Cc3ccc(F)cc3)CC2)CC1c1ccncc1 (stereo not drawn) | -8.27%
CN(Cc1ccco1)[C@@H]1CN(Cc2ccsc2)C[C@@H]2CCCO[C@@H]21 | 2.78%
CC(=O)N1C[C@@H]2CN(Cc3cccnc3)CCO[C@@H]2C1 | -11.3%
O=C1NC2(CCN(Cc3cccnc3)CC2)CC1c1cccnc1 (stereo not drawn) | -8.55%
CN(Cc1ccco1)[C@@H]1CN(Cc2cccnc2)C[C@@H]2CCCO[C@@H]21 | -5%
c1cncc(CN2CCC3(COCCN(C4CCOCC4)C3)C2)c1 (stereo not drawn) | -6.19%
Cc1cccc(CN2CCOCC3(CCN(C4CCOCC4)C3)C2)n1 (stereo not drawn) | 7.65%
